From ChEMBL document CHEMBL3232736, “Antiproliferative activities of halogenated thieno[3,2-d]pyrimidines” (Bioorg Med Chem, 2014)
Values after ≈ are worked out from the molar mass of the structure shown. Active and inactive are the calls of the source. The rule behind the calls is not given here.

Columns and labels:
[1] = molecular target: Tyrosine-protein kinase JAK1 (Homo sapiens) (UniProt P23458); test: Inhibition of JAK1 (unknown origin) at 5 uM
[2] = test system: L1210; test: Induction of apoptosis in mouse L1210 cells assessed as viable cells level at 1 uM after 48 hrs by Annexin-V/7-AAD staining-based flow cytometric analysis (reference value: 92.5%); format: functional
[3] = test system: Bacillus spizizenii; test: Antibacterial activity against Bacillus subtilis ATCC 6633 assessed as growth inhibition at 100 uM after 16 to 20 hrs by microbroth dilution method; format: functional
[4] = molecular target: Phosphatidylinositol 3-kinase catalytic subunit type 3 (Homo sapiens) (UniProt Q8NEB9); test: Inhibition of PIK3C3 (unknown origin) at 5 uM
[5] = molecular target: Phosphatidylinositol 4,5-bisphosphate 3-kinase catalytic subunit gamma isoform (Homo sapiens) (UniProt P48736); test: Inhibition of PIK3CG (unknown origin) at 5 uM
[6] = molecular target: PI3-kinase p110-alpha/p85-alpha (Homo sapiens) (UniProt P27986+P42336); test: Inhibition of PIK3CA/PIK3R1 (unknown origin) at 5 uM; format: protein-complex assay
[7] = molecular target: Leukocyte tyrosine kinase receptor (Homo sapiens) (UniProt P29376); test: Inhibition of LTK (unknown origin) at 5 uM
[8] = test system: Escherichia coli; test: Antibacterial activity against Escherichia coli ATCC 25922 assessed as growth inhibition at 100 uM after 16 to 20 hrs by microbroth dilution method; format: functional, organism-based
[9] = molecular target: Tyrosine-protein kinase JAK3 (Homo sapiens) (UniProt P52333); test: Inhibition of JAK3 (unknown origin) at 5 uM
[10] = molecular target: Serine/threonine-protein kinase D1 (Homo sapiens) (UniProt Q15139); test: Inhibition of PRKD1 (unknown origin) at 5 uM
[11] = test system: L1210; test: Cytotoxicity against mouse L1210 cells assessed as reduction in cell number after 48 hrs by cell counting assay; format: functional, cell-based; conditions: L1210, 48 h
[12] = test system: Cryptococcus neoformans; test: Antifungal activity against Cryptococcus neoformans B4546 assessed as growth inhibition after 48 hrs by microbroth dilution method; format: functional; conditions: B4546, 48 h
[13] = molecular target: Serine/threonine-protein kinase mTOR (Homo sapiens) (UniProt P42345); test: Inhibition of FRAP1 (unknown origin) at 5 uM
[14] = molecular target: Phosphatidylinositol 4-phosphate 3-kinase C2 domain-containing subunit alpha (Homo sapiens) (UniProt O00443); test: Inhibition of PIK3C2A (unknown origin) at 5 uM
Phosphatidylinositol 4-phosphate 3-kinase C2 domain-containing subunit alpha (Homo sapiens), sequence (O00443 whole entry, the tested form may be a part): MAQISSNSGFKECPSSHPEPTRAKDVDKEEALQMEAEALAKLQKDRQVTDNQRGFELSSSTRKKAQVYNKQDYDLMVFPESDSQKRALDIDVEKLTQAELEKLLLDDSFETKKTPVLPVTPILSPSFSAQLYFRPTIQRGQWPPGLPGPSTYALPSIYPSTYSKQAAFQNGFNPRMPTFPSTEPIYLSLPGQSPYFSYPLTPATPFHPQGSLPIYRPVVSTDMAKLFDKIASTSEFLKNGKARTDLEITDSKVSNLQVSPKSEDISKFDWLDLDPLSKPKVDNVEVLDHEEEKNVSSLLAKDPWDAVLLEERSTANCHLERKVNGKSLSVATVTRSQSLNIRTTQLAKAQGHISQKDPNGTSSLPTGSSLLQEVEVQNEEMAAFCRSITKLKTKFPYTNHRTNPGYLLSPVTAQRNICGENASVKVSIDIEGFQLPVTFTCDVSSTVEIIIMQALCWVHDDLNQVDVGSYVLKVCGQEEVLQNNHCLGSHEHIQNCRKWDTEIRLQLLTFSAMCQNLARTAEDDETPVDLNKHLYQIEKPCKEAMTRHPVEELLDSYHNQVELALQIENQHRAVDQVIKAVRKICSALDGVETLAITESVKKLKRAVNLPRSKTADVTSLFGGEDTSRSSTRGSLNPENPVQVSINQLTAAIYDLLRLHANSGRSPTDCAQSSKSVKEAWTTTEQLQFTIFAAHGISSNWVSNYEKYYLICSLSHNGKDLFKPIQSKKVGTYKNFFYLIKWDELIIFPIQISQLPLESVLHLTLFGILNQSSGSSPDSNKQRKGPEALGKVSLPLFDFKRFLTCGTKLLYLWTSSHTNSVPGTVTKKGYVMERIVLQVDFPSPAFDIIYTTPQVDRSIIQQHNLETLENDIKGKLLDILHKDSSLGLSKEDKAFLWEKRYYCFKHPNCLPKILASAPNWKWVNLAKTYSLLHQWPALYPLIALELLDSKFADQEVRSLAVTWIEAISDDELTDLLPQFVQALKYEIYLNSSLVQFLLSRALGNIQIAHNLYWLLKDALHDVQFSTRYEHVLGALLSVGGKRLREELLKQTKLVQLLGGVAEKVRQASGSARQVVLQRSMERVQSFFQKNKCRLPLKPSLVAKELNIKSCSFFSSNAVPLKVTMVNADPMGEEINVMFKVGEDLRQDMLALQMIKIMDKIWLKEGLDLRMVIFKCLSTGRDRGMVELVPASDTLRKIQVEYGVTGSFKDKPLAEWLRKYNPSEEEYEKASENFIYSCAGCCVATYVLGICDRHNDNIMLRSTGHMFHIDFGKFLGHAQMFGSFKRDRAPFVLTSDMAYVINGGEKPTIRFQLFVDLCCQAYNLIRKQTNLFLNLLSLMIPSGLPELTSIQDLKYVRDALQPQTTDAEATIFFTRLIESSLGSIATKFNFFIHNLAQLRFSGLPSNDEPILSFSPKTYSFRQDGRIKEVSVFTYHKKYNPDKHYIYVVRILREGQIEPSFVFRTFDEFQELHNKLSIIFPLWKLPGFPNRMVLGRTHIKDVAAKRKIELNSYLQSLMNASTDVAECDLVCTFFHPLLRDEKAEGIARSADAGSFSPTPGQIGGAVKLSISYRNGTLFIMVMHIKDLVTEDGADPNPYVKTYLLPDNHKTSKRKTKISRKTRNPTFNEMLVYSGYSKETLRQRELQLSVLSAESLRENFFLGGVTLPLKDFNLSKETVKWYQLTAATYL

[15] = test system: Tyrosine-protein kinase JAK2 (Homo sapiens), O60674 [V617F]; test: Inhibition of JAK2 JH1/JH2 domain V617F mutant (unknown origin) at 5 uM
Tyrosine-protein kinase JAK2 (Homo sapiens), O60674 [V617F], sequence (O60674 whole entry V617F, the tested form may be a part): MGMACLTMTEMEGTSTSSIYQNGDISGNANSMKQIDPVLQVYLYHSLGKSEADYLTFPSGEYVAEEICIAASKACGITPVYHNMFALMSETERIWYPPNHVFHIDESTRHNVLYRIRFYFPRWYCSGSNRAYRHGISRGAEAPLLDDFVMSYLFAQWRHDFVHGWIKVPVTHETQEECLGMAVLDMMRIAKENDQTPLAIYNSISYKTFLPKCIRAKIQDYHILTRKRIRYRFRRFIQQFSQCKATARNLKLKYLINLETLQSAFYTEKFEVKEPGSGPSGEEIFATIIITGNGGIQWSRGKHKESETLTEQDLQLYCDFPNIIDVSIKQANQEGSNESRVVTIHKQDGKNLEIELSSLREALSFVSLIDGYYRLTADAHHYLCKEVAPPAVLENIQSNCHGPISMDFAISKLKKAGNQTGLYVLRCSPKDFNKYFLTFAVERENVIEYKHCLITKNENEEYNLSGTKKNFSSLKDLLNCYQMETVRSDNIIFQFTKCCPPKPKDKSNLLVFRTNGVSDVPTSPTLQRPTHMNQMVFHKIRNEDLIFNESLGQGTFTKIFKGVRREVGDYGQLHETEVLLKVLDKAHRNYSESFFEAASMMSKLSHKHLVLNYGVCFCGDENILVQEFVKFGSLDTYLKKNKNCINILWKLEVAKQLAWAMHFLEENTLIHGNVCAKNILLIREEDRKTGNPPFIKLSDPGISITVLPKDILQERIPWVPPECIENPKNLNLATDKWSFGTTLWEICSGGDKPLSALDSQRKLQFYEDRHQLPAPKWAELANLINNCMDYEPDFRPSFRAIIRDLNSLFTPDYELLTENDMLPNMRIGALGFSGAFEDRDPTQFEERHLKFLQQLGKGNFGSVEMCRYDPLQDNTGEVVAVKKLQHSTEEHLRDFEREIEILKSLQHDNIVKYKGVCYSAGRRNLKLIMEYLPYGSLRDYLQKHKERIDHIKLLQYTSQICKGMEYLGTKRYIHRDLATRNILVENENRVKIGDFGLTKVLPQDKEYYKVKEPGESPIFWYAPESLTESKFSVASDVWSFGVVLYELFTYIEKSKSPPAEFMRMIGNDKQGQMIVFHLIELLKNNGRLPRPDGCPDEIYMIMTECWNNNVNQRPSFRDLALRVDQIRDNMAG

[16] = test system: Enterococcus faecalis; test: Antibacterial activity against vancomycin-resistant Enterococcus faecalis ATCC 51299 assessed as growth inhibition at 100 uM after 16 to 20 hrs by microbroth dilution method; format: functional, organism-based
[17] = molecular target: Hepatocyte growth factor receptor (Homo sapiens) (UniProt P08581); test: Inhibition of MET (unknown origin) at 5 uM
Hepatocyte growth factor receptor (Homo sapiens), sequence (P08581 whole entry, the tested form may be a part): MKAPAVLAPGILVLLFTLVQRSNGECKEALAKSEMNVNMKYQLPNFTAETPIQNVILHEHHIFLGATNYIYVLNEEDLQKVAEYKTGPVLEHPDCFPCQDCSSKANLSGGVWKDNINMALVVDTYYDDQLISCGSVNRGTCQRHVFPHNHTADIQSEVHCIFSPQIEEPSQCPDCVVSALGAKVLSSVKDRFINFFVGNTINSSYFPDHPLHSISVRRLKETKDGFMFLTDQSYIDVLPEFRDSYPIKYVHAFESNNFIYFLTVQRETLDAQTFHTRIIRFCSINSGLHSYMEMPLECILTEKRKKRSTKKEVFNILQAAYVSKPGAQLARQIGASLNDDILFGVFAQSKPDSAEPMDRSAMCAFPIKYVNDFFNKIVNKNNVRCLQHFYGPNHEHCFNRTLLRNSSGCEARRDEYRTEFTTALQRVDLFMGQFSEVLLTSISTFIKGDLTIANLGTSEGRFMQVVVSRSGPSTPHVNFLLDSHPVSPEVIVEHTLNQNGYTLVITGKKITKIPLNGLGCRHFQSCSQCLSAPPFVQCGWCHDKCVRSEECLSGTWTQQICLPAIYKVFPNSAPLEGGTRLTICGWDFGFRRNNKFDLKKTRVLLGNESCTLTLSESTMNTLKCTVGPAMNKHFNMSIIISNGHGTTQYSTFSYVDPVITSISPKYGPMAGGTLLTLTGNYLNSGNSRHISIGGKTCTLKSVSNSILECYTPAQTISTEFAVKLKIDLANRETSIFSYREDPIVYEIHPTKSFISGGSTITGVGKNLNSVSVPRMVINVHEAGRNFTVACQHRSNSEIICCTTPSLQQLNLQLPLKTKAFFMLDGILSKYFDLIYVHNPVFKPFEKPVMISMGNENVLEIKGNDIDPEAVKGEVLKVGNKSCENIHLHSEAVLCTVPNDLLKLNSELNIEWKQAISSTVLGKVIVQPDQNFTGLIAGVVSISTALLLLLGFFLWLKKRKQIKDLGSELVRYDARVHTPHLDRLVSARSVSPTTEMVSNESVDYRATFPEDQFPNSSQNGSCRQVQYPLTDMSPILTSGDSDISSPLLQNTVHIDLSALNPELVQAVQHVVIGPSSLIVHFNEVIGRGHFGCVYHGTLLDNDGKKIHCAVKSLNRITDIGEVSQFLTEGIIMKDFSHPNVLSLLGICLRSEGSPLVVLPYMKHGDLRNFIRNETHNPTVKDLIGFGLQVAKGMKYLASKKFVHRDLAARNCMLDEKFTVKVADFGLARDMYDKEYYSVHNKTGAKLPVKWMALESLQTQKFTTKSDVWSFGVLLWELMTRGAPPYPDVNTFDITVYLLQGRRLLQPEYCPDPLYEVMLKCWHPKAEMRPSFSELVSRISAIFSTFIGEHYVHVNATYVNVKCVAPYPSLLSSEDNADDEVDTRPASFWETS

[18] = molecular target: Phosphatidylinositol 4-phosphate 3-kinase C2 domain-containing subunit beta (Homo sapiens) (UniProt O00750); test: Inhibition of PIK3C2B (unknown origin) at 5 uM
[19] = test system: L1210; test: Induction of apoptosis in mouse L1210 cells assessed as necrotic cells level at 1 uM after 48 hrs by Annexin-V/7-AAD staining-based flow cytometric analysis (reference value: 3.68%); format: functional
[20] = test system: Vero; test: Cytotoxicity against African green monkey Vero cells assessed as reduction in cell number; format: cell-based; conditions: chlorocebus sabaeus
[21] = test system: L1210; test: Cytotoxicity against mouse L1210 cells assessed as reduction in cell viability after 48 hrs by MTT assay; format: functional, cell-based; conditions: L1210, 48 h
[22] = test system: L1210; test: Induction of apoptosis in mouse L1210 cells assessed as late cells level at 1 uM after 48 hrs by Annexin-V/7-AAD staining-based flow cytometric analysis (reference value: 1.25%); format: functional
[23] = molecular target: Proto-oncogene tyrosine-protein kinase Src (Homo sapiens) (UniProt P12931); test: Inhibition of SRC (unknown origin) at 5 uM
Proto-oncogene tyrosine-protein kinase Src (Homo sapiens), sequence (P12931 2-536 limits assumed): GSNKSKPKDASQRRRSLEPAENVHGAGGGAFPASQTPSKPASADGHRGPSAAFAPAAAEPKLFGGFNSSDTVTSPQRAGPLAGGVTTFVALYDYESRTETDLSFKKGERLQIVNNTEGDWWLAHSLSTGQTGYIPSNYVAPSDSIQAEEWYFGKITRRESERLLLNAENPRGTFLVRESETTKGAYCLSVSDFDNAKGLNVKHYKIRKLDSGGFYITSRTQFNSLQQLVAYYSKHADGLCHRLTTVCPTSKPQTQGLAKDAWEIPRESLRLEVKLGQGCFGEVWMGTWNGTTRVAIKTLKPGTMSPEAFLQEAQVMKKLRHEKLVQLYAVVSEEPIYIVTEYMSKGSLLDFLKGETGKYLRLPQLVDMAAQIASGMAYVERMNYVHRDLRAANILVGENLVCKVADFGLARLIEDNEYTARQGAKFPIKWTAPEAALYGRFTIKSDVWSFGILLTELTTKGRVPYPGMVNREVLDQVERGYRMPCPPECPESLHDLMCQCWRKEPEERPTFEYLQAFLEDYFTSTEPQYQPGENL

[24] = test system: HEL; test: Cytotoxicity against human HEL cells assessed as reduction in cell number by cell counting assay; format: functional
[25] = test system: CCRF-CEM; test: Cytotoxicity against human CCRF-CEM cells assessed as reduction in cell number after 72 hrs by cell counting assay; format: functional, cell-based
[26] = molecular target: Serine/threonine-protein kinase D2 (Homo sapiens) (UniProt Q9BZL6); test: Inhibition of PRKD2 (unknown origin) at 5 uM
[27] = test system: Staphylococcus aureus; test: Antibacterial activity against methicillin-resistant Staphylococcus aureus subsp. aureus ATCC 43300 assessed as growth inhibition at 100 uM after 16 to 20 hrs by microbroth dilution method; format: functional, organism-based
[28] = test system: Cryptococcus neoformans; test: Antifungal activity against Cryptococcus neoformans JEC20 assessed as growth inhibition after 48 hrs by microbroth dilution method; format: functional; conditions: JEC20, 48 h
[29] = molecular target: PI3-kinase p110-delta/p85-alpha (Homo sapiens) (UniProt P27986+O00329); test: Inhibition of PIK3CD/PIK3R1 (unknown origin) at 5 uM; format: protein-complex assay
[30] = molecular target: Serine/threonine-protein kinase D3 (Homo sapiens) (UniProt O94806); test: Inhibition of PRKCN (unknown origin) at 5 uM
[31] = molecular target: Proto-oncogene tyrosine-protein kinase Src (Homo sapiens) (UniProt P12931); test: Inhibition of SRC N1 (unknown origin) at 5 uM
[32] = test system: Pseudomonas aeruginosa; test: Antibacterial activity against Pseudomonas aeruginosa ATCC 27853 assessed as growth inhibition at 100 uM after 16 to 20 hrs by microbroth dilution method; format: functional, organism-based
[33] = molecular target: Tyrosine-protein kinase JAK2 (Homo sapiens) (UniProt O60674); test: Inhibition of JAK2 JH1/JH2 domain (unknown origin) at 5 uM
Tyrosine-protein kinase JAK2 (Homo sapiens), sequence (O60674 whole entry, the tested form may be a part): as the sequence (O60674 whole entry V617F, the tested form may be a part) above, with F617V counted along it

[34] = test system: L1210; test: Induction of apoptosis in mouse L1210 cells assessed as early apoptotic cells level at 1 uM after 48 hrs by Annexin-V/7-AAD staining-based flow cytometric analysis (reference value: 2.59%); format: functional
[35] = test system: HeLa; test: Cytotoxicity against human HeLa cells assessed as reduction in cell number after 72 hrs by cell counting assay; format: functional, cell-based
[36] = test system: HeLa; test: Cytotoxicity against human HeLa cells assessed as reduction in cell number; format: functional
[37] = molecular target: Non-receptor tyrosine-protein kinase TYK2 (Homo sapiens) (UniProt P29597); test: Inhibition of TYK2 (unknown origin) at 5 uM
[38] = molecular target: Tyrosine-protein kinase JAK2 (Homo sapiens) (UniProt O60674); test: Inhibition of JAK2 (unknown origin) at 5 uM
[39] = test system: L1210; test: Cell cycle arrest in mouse L1210 cells at 0.32 uM after 24 to 48 hrs by propidium iodide staining-based flow cytometric analysis; format: functional
[40] = test system: Candida albicans; test: Antifungal activity against Candida albicans ATCC 10231 assessed as growth inhibition after 16 to 20 hrs by microbroth dilution method; format: functional
[41] = test system: L1210; test: Induction of apoptosis in mouse L1210 cells assessed as late apoptosis at 5.4 uM after 48 hrs by Annexin-V/7-AAD staining-based flow cytometric analysis (reference value: 4.46%); format: functional
[42] = test system: L1210; test: Induction of apoptosis in mouse L1210 cells assessed as necrotic cell level at 5.4 uM after 48 hrs by Annexin-V/7-AAD staining-based flow cytometric analysis (reference value: 8.13%); format: functional
[43] = test system: L1210; test: Cell cycle arrest in mouse L1210 cells at 5.4 uM after 24 to 48 hrs by propidium iodide staining-based flow cytometric analysis; format: functional
[44] = test system: L1210; test: Induction of apoptosis in mouse L1210 cells assessed as early apoptosis at 5.4 uM after 48 hrs by Annexin-V/7-AAD staining-based flow cytometric analysis (rvb = 3.36%); format: functional
[45] = test system: L1210; test: Induction of apoptosis in mouse L1210 cells assessed as viable cell level at 5.4 uM after 48 hrs by Annexin-V/7-AAD staining-based flow cytometric analysis (reference value: 83%); format: functional

Clc1nc(Cl)c2sccc2n1
inhibition [1]: < 40%
Activity [2]: 37.9%
inhibition at 100 µM [3]: 43%
inhibition [4]: < 40%
inhibition [5]: < 40%
inhibition [6]: < 40%
inhibition [7]: < 40%
inhibition [8]: inactive
inhibition [9]: < 40%
inhibition [10]: < 40%
IC50 [11]: 0.67 µM
MIC95 [12]: 34.6 µM (≈ 7.1 µg/mL)
inhibition [13]: < 40%
inhibition [14]: < 40%
inhibition [15]: < 40%
inhibition [16]: inactive
inhibition [17]: < 40%
inhibition [18]: < 40%
Activity [19]: 1.29%
MIC99 [20]: 20 µM (≈ 4.1 µg/mL)
IC50 [21]: 0.32 µM
Activity [22]: 4.72%
inhibition [23]: < 40%
MIC99 [24]: 100 µM (≈ 20.5 µg/mL)
IC50 [25]: 5.2 µM
inhibition [26]: < 40%
inhibition [27]: inactive
MIC95 [28]: 16.6 µM (≈ 3.4 µg/mL)
inhibition [29]: < 40%
inhibition [30]: < 40%
inhibition [31]: < 40%
inhibition [32]: inactive
inhibition [33]: < 40%
Activity [34]: 56%
IC50 [35]: 3.9 µM
MIC99 [36]: 4 µM (≈ 0.82 µg/mL)
inhibition [37]: < 40%
inhibition [38]: < 40%
Activity [39]: inactive
MIC95 [40]: 23.4 µM (≈ 4.8 µg/mL)

O=c1[nH]c(=O)c2scc(Br)c2[nH]1
IC50 [11]: > 250 µM
IC50 [25]: > 250 µM
IC50 [35]: > 250 µM

COc1nc(OC)c2scc([C@H]3CC(=O)[C@@H](CO)O3)c2n1
IC50 [11]: > 250 µM
IC50 [25]: > 250 µM
IC50 [35]: > 250 µM

Clc1nc(Cl)c2scc(Br)c2n1
inhibition [3]: inactive
inhibition [8]: inactive
IC50 [11]: 5.4 µM
Activity [41]: 21.8%
MIC95 [12]: 7 µM (≈ 1.99 µg/mL)
inhibition [16]: inactive
Activity [42]: 1.84%
Activity [43]: inactive
MIC99 [20]: 20 µM (≈ 5.68 µg/mL)
IC50 [21]: 5.4 µM
Activity [44]: 33.3%
MIC99 [24]: 20 µM (≈ 5.68 µg/mL)
IC50 [25]: 14 µM
inhibition [27]: inactive
MIC95 [28]: 5.8 µM (≈ 1.65 µg/mL)
inhibition [32]: inactive
IC50 [35]: 4.3 µM
MIC99 [36]: 20 µM (≈ 5.68 µg/mL)
Activity [45]: 43.1%
MIC95 [40]: 10.7 µM (≈ 3.04 µg/mL)
